Data published in patent US20090325270A1, “USE OF 2-HYDROXY-5-OXOPROLINE IN CONJUNCTION WITH ALGAE” (priority 2008, published 2009).

Tested on: pale-green mutant Nannochloropsis
Assay: Growth of algae cultures treated with 2-hydroxy-5-oxoproline (Example One, FIG. 3)
Type: cell-based
Excerpt: At step 130, the pale-green mutant Nannochloropsis may be cultivated in an aqueous environment having an effective amount of 2-hydroxy-5-oxoproline. The effective amount of 2-hydroxy-5-oxoproline may increase the growth rate of the pale-green mutant Nannochloropsis.
1. Light intensity was 600 micro-Einsteins.
2. Temperature was held constant at 25 C.
3. Cultures were inoculated to the same extent (as determined by optical density at […], O.D. 750).
4. The bicarb controls were used because the AB1 chemical, which is the 2-hydroxy-5-oxoproline compound, was dissolved in a bicarbonate buffer. This control was to make sure that differences in growth were not due to the presence of bicarbonate. The bicarb controls contain the same concentration of bicarbonate as the AB1 flasks.
5. The cultures were grown on urea as the nitrogen-source.
The bicarb controls were inoculated with 10 mls of 1.3 M bicarbonate solution (pH 9.5). The AB-1 treated cultures had approximately 0.1 g of 2-hydroxy-5-oxoproline added with the algal inoculum. No treat 2 had approximately 50% more cells inoculated as no treat 1, bicarb 1 and 2 and the AB-1 cultures. […] The difference in slope between the AB-1 cultures and the no-treat 1 and bicarb controls was approximately 50%-60%. Therefore, by feeding 2-hydroxy-5-oxoproline to pale-green mutant Nannochloropsis, a greater growth rate could be achieved, which would allow high cell density cultures to be produced quicker, so the advantages of the pale-green phenotype over the wild-type become apparent.

## O=C1CC[C@@](O)(C(=O)O)N1 [AB-1, 2-hydroxy-5-oxoproline]
Approximately 0.1 g 2-hydroxy-5-oxoproline added with inoculum to 800 mls media, approximately 300 hours, constant illumination 600 micro-Einsteins, 25 C, urea as nitrogen-source
  difference in slope (growth) between the AB-1 cultures and the no-treat 1 and bicarb controls: 50%-60%
Approximately 0.1 g 2-hydroxy-5-oxoproline in 800 mls media, approximately 300 hours
  growth compared with no treat 2 (approximately 50% more cells inoculated): grew as if they had been inoculated with more cells than had actually been added
As measured by absorbance at 750 nm, effective amount of 2-hydroxy-5-oxoproline
  faster growth than culture without 2-hydroxy-5-oxoproline: fifty to sixty
